US20060030562A1, “Use of an inhibitor of cathepsin-S-or-B to treat or prevent chronic obstructive pulmonary disease” (AVENTIS PHARMACEUTICALS INC., priority 2003, published 2006)
“Also recorded” adds a separate entry of the source. Peptide text beside a SMILES is read from it. * marks the point of attachment. Cbz = O=C(OCc1ccccc1)*; CH2F = FC*

What was measured:
Type in all cases: in vivo
[1] = tested on: CC10-rtTA-IFN-γ transgene (+) mice; assay: IFN-γ-induced lung cell apoptosis (TUNEL) in transgenic mice; conditions: for IFN-γ-induced apoptosis (TUNEL): transgene (+) mice on dox, 14150 10 mg/kg/day by gavage, CA074 10 mg/Kg/day, leupeptin 15 mg/kg I.P., vs vehicle
From the text: (§1) CC10-rtTA-IFN-γ mice that had been generated in our laboratory and bred for at least 10 generations onto a Balb/c background were used in these studies. These are dual transgene positive animals in which the reverse tetracycline transactivator (rtTA) drives the expression of the murine IFN-γ gene in a lung-specific and externally regulatable fashion. The transgene in these mice is activated by adding doxycycline (dox) to the animal's drinking water. These mice were maintained as dual transgene (+) heterozygotes (refered to as transgene (+) hereafter).
(§2) CC 10-rtTA-IFN-γ mice and littermate controls were maintained on normal water until they were 4-6 weeks old.
End labeling of exposed 3′-OH ends of DNA fragments in paraffin embedded tissue was undertaken with the TUNEL in situ cell death detection kit AP (Roche Diagnostics, Calif., USA) using the instructions provided by the manufacturer. After staining, 20 fields of alveoli were randomly chosen and 2000 nuclei were counted. The labeled cells were expressed as percentage of total nuclei.

[2] = tested on: CC10-rtTA-IFN-γ transgene (+) mice; assay: IFN-γ-induced emphysema (lung volume, chord length, histology, compliance) in transgenic mice; conditions: transgene (+) mice on dox, Z-VAD-fmk 3 μg/kg/day I.P., 14150 10 mg/kg/day by gavage, CA074 10 mg/Kg/day, leupeptin 15 mg/kg I.P., vs vehicle
From the text: as §1, §2
(§3) Animals were sacrificed via cervical dislocation, a median sternotomy was performed, and right heart perfusion was accomplished with calcium- and magnesium-free PBS to clear the pulmonary intravascular space. The lungs were then fixed to pressure (25 cm) with neutral buffered 10% formalin, fixed overnight in 10% formalin, embedded in paraffin, sectioned at 5 μm and stained. Hematoxylin and eosin (H&E) stains were performed in the Research Histology Laboratory of the Department of Pathology at Yale University School of Medicine.
In brief, the trachea was cannulated, the lungs were degassed and the lungs and heart were removed en bloc and inflated with PBS at 25 cm of pressure. The size of the lung was evaluated via volume displacement. Compliance was calculated as the change in volume divided by the change in pressure.

[3] = tested on: CC10-rtTA-IFN-γ transgene (+) mice; assay: IFN-γ-induced BAL and tissue inflammation; conditions: transgene (+) mice on dox 2 weeks
Description: Mice were euthanized, the trachea was isolated by blunt dissection, and tubing was secured in the airway. Two volumes of 1 mL of PBS with 0.1% BSA were then instilled and gently aspirated and pooled. Each BAL fluid sample was centrifuged, and the supernatants were stored in −70° C. until used The levels of IFN-γ were determined using a commercial ELISA (R&D Systems Inc., Minneapolis, Minn., USA) as per the manufacturer's instructions.
as §3

[4] = tested on: CC10-rtTA-IFN-γ transgene (+) mice; assay: Lung mRNA encoding cathepsins and MMPs (RT-PCR, real-time RT-PCR); conditions: transgene (+) mice on dox 2 weeks

Compound | IFN-γ-induced apoptosis (TUNEL) [1] | IFN-γ-induced emphysema (lung volume, chord length, alveolar histology, compliance) [2] | decrease of the levels of IFN-γ-induced apoptosis ([1]; transgene (+) mice on dox 2 weeks, Z-VAD-fmk 3 μg/kg/day I.P. vs vehicle) [%] | IFN-γ-induced BAL total cell, neutrophil, lymphocyte and macrophage alterations and tissue inflammation [3] | IFN-γ-induced increase in mRNA encoding cathepsin B, cathepsin S and MMPs-2 and -14 [4] | levels of mRNA encoding cathepsin H and MMPs-9 and -12 [4] | IFN-γ-induced emphysema (lung volume, chord length, alveolar histology, compliance) ([2]; listed as Z-VAD-fink) | MMP-9 mRNA induction [4]
CCCNC(=O)[C@H]1O[C@@H]1C(=O)N[C@H](C(=O)N1CCC[C@H]1C(=O)O)[C@@H](C)CC (relative stereo) [CA074, N-(L-3-trans-propylcarbamoyl-oxirane-2-carbonyl)-L-isoleucyl-L-proline] | significant decreases | significant decreases | – | – | – | – | – | –
COC(=O)C[C@H](NC(=O)[C@H](C)NC(=O)[C@@H](NC(=O)OCc1ccccc1)C(C)C)C(=O)CF [Z-VAD-fmk] (Cbz-Val-Ala-Asp(OMe)-CH2F) | – | decreased the emphysema generating effects of IFN-γ | ≥ 85 | markedly ameliorated | markedly ameliorated | not similarly altered | only partially abrogated | –
CC(=O)N[C@@H](CC(C)C)C(=O)N[C@@H](CC(C)C)C(=O)N[C@H](C=O)CCCNC(=N)N [leupeptin] | – | – | – | – | decreased | – | – | induced in am leupeptin-dependent fashion
CC[C@H](NC(=O)[C@H](CS(=O)(=O)CC(C)C)NC(=O)N1CCOCC1)C(=O)c1nc2ccccc2o1 [compound 14150] | significant decreases; also recorded: significantly inhibited | significant decreases; also recorded: significantly inhibited | – | – | – | – | – | –
